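Where inhibition never reached the appropriate level, the endpoint shown equals the highest concentration tested. Otherwise, values were interpolated linearly from a five-concentration, 48-hour dose response in 96-well plates. GI50: concentration for 50% inhibition of growth.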 Active and inactive are the calls of the source. Cut-off read from the data, not from the text of the source: active = GI50 up to about 1.1 µM and inactive = higher.
Tests used:
Test in all cases: NCI-60 cell line screen, 48 h
RXF 631 = tested on: RXF 631
SNB-78 = tested on: SNB-78
SW-620 = tested on: SW-620
U-251 = tested on: U-251
NCI-H460 = tested on: NCI-H460
OVCAR-4 = tested on: OVCAR-4
MDA-N = tested on: MDA-N
HL-60 = tested on: HL-60
NCI-H23 = tested on: NCI-H23
HCT-15 = tested on: HCT-15
RXF 393 = tested on: RXF 393
EKVX = tested on: EKVX
ACHN = tested on: ACHN
DLD-1 = tested on: DLD-1
PC-3 = tested on: PC-3
COLO 205 = tested on: COLO 205
LXFL 529 = tested on: LXFL 529
HOP-62 = tested on: HOP-62
MCF7 = tested on: MCF7
HT-29 = tested on: HT-29
NCI-H522 = tested on: NCI-H522
SF-539 = tested on: SF-539
A498 = tested on: A498
HOP-18 = tested on: HOP-18
SF-295 = tested on: SF-295
K562 = tested on: K562
LOX IMVI = tested on: LOX IMVI
HOP-92 = tested on: HOP-92
Hs-578T = tested on: Hs-578T
DU-145 = tested on: DU-145
OVCAR-8 = tested on: OVCAR-8
SNB-75 = tested on: SNB-75
CCRF-CEM = tested on: CCRF-CEM
OVCAR-5 = tested on: OVCAR-5
TK-10 = tested on: TK-10
HCT-116 = tested on: HCT-116
UO-31 = tested on: UO-31
BT-549 = tested on: BT-549
SF-268 = tested on: SF-268
A549 = tested on: A549
UACC-62 = tested on: UACC-62
XF498 = tested on: XF498
M19-MEL = tested on: M19-MEL
KM12 = tested on: KM12
MOLT-4 = tested on: MOLT-4
SR = tested on: SR
SK-MEL-5 = tested on: SK-MEL-5
T47D = tested on: T47D
MDA-MB-435 = tested on: MDA-MB-435
RPMI-8226 = tested on: RPMI-8226
M14 = tested on: M14
DMS-273 = tested on: DMS-273
SN12C = tested on: SN12C
786-0 = tested on: 786-0
MDA-MB-231 = tested on: MDA-MB-231
DMS-114 = tested on: DMS-114
CAKI-1 = tested on: CAKI-1
OVCAR-3 = tested on: OVCAR-3
HCC 2998 = tested on: HCC 2998
SK-MEL-28 = tested on: SK-MEL-28
NCI-H226 = tested on: NCI-H226
KM-20L2 = tested on: KM-20L2
SK-MEL-2 = tested on: SK-MEL-2
SNB-19 = tested on: SNB-19
SK-OV-3 = tested on: SK-OV-3
IGROV-1 = tested on: IGROV-1
Malme-3M = tested on: Malme-3M
NCI/ADR-RES = tested on: NCI/ADR-RES
UACC-257 = tested on: UACC-257

For `Cc1cc(C)c(-n2c(-c3ccc(Br)cc3)cs/c2=N\N=C2C=C(C(C)(C)C)C(=O)C(C(C)(C)C)=C2)c(C)c1`, the GI50 (RXF 631) was > 100 µM (inactive), the GI50 (SNB-78) was 38.7 µM (inactive) and the GI50 (SW-620) was > 100 µM (inactive). The GI50 (U-251) was 31.2 µM (inactive), the GI50 (NCI-H460) was > 100 µM (inactive) and the GI50 (OVCAR-4) was > 100 µM (inactive). The GI50 (MDA-N) was > 100 µM (inactive), the GI50 (HL-60) was > 100 µM (inactive) and the GI50 (NCI-H23) was > 100 µM (inactive). For the same compound, the GI50 (HCT-15) was over 100 µM, the GI50 (RXF 393) was 21.7 µM (inactive) and the GI50 (EKVX) was > 100 µM (inactive). The GI50 (ACHN) was > 100 µM (inactive), the GI50 (DLD-1) was > 100 µM (inactive) and the GI50 (PC-3) was > 100 µM (inactive). For the same compound, the GI50 (COLO 205) was > 100 µM (inactive), the GI50 (LXFL 529) was > 100 µM (inactive) and the GI50 (HOP-62) was 32.7 µM (inactive). For the same compound, the GI50 (MCF7) was > 100 µM (inactive), the GI50 (HT-29) was > 100 µM (inactive) and the GI50 (NCI-H522) was > 100 µM (inactive). For the same compound, the GI50 (SF-539) was > 69.3 µM (inactive), the GI50 (A498) was 31.3 µM (inactive) and the GI50 (HOP-18) was > 100 µM (inactive). For the same compound, the GI50 (SF-295) was > 41.5 µM (inactive), the GI50 (K562) was > 100 µM (inactive) and the GI50 (LOX IMVI) was > 100 µM (inactive). For the same compound, the GI50 (HOP-92) was > 50.1 µM (inactive), the GI50 (Hs-578T) was 15.3 µM (inactive) and the GI50 (DU-145) was > 100 µM (inactive). The GI50 (OVCAR-8) was > 100 µM (inactive), the GI50 (SNB-75) was 17.5 µM (inactive) and the GI50 (CCRF-CEM) was > 100 µM (inactive). For the same compound, the GI50 (OVCAR-5) was > 100 µM (inactive), the GI50 (TK-10) was > 71.8 µM (inactive) and the GI50 (HCT-116) was > 76 µM (inactive). The GI50 (UO-31) was > 100 µM (inactive), the GI50 (BT-549) was > 100 µM (inactive) and the GI50 (SF-268) was 69.8 µM (inactive). The GI50 (A549) was > 100 µM (inactive), the GI50 (UACC-62) was > 81.1 µM (inactive) and the GI50 (XF498) was 29.9 µM (inactive). The GI50 (M19-MEL) was > 100 µM (inactive), the GI50 (KM12) was > 100 µM (inactive) and the GI50 (MOLT-4) was > 100 µM (inactive). For the same compound, the GI50 (SR) was > 100 µM (inactive), the GI50 (SK-MEL-5) was > 100 µM (inactive) and the GI50 (T47D) was > 100 µM (inactive). For the same compound, the GI50 (MDA-MB-435) was > 100 µM (inactive), the GI50 (RPMI-8226) was > 100 µM (inactive) and the GI50 (M14) was > 100 µM (inactive). The GI50 (DMS-273) was > 100 µM (inactive), the GI50 (SN12C) was > 100 µM (inactive) and the GI50 (786-0) was > 100 µM (inactive). The GI50 (MDA-MB-231) was 55.3 µM (inactive), the GI50 (DMS-114) was > 100 µM (inactive) and the GI50 (CAKI-1) was > 100 µM (inactive). The GI50 (OVCAR-3) was > 100 µM (inactive), the GI50 (HCC 2998) was > 100 µM (inactive) and the GI50 (SK-MEL-28) was > 100 µM (inactive). The GI50 (NCI-H226) was > 100 µM (inactive), the GI50 (KM-20L2) was > 100 µM (inactive) and the GI50 (SK-MEL-2) was > 100 µM (inactive). The GI50 (SNB-19) was 76.2 µM (inactive), the GI50 (SK-OV-3) was > 72.9 µM (inactive) and the GI50 (IGROV-1) was > 63.7 µM (inactive). For the same compound, the GI50 (Malme-3M) was > 100 µM (inactive), the GI50 (NCI/ADR-RES) was > 100 µM (inactive) and the GI50 (UACC-257) was > 100 µM (inactive).
